Experiments:
Details in all cases: at 10 µM
[1] = target: Tyrosine-protein kinase Blk (Homo sapiens) (UniProt P51451)
[2] = target: T1, Tyrosine-protein kinase Mer (Homo sapiens) (UniProt Q12866); assay: Selectivity interaction (KinomeScan (DiscoverX)) EUB0000618a MERTK
T1 sequence (whole entry): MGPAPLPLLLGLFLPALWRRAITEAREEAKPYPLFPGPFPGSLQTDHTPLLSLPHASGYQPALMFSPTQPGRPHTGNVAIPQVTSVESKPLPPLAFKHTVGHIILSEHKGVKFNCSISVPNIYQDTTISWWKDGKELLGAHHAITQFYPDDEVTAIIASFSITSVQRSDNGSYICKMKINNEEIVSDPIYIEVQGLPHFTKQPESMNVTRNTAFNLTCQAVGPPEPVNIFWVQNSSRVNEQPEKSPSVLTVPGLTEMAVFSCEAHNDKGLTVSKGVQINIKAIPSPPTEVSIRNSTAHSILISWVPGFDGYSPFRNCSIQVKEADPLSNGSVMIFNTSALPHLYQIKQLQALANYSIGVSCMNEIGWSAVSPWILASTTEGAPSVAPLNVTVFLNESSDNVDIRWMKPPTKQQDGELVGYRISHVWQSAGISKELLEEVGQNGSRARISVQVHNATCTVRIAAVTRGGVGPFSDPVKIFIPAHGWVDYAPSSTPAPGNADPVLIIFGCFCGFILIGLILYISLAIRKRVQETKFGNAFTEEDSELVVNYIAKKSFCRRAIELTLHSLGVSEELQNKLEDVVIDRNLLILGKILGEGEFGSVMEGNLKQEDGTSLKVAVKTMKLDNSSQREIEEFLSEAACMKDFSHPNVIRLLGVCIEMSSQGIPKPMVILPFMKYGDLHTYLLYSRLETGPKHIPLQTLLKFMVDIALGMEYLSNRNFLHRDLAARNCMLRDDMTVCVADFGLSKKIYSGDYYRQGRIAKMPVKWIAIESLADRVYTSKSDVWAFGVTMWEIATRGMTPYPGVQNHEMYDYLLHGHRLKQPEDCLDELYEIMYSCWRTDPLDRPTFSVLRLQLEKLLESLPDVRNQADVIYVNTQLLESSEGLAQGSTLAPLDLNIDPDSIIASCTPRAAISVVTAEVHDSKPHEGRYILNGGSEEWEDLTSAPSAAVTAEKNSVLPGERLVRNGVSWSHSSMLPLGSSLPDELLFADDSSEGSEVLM

[3] = target: T2, Serine/threonine-protein kinase TAO3 (Homo sapiens) (UniProt Q9H2K8); assay: Selectivity interaction (KinomeScan (DiscoverX)) EUB0000618a TAOK3
T2 sequence (whole entry): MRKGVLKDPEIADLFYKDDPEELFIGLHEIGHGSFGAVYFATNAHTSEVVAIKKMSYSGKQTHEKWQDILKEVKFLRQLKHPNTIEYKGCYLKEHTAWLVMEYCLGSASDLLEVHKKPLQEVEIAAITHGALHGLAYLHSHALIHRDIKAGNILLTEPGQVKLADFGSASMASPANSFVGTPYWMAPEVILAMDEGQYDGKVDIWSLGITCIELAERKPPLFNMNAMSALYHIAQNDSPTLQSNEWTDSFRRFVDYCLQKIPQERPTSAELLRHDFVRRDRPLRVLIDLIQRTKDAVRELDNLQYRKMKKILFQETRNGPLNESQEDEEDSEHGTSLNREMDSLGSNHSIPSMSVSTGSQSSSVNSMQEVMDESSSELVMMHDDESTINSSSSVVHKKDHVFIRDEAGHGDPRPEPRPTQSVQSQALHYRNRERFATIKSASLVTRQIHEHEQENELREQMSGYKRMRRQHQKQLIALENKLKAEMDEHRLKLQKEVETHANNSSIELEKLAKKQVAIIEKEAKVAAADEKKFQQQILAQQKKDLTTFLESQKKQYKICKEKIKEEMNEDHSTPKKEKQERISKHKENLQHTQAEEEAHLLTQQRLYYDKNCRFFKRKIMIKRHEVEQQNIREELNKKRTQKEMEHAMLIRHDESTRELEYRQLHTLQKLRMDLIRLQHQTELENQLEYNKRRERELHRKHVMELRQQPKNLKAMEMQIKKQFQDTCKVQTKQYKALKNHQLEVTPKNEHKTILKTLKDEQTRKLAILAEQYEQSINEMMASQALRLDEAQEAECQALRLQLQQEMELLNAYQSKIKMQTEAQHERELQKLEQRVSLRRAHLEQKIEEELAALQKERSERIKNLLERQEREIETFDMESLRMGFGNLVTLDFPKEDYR

[4] = target: Neuronal acetylcholine receptor subunit beta-2 (Homo sapiens) (UniProt P17787); assay: Selectivity interaction (Eurofins CEREP Diversity Profile (receptors and ion channels)) EUB0000279b CHRNB2
Sequence of Neuronal acetylcholine receptor subunit beta-2 (Homo sapiens) (P17787 whole entry): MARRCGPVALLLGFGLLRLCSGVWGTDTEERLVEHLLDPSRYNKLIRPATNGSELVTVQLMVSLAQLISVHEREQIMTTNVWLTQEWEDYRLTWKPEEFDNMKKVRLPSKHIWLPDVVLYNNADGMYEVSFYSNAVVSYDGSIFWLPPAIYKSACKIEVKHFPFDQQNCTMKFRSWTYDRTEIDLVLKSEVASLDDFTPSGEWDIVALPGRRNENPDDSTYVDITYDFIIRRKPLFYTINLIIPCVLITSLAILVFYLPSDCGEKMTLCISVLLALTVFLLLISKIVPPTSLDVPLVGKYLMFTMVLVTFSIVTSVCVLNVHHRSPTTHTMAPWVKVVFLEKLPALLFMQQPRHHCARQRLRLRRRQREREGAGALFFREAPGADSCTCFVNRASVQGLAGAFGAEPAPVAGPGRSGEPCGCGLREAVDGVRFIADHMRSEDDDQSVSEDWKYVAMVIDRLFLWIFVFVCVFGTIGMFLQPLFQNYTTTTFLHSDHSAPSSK

Sequence of Tyrosine-protein kinase Blk (Homo sapiens) (P51451 2-505 limits assumed): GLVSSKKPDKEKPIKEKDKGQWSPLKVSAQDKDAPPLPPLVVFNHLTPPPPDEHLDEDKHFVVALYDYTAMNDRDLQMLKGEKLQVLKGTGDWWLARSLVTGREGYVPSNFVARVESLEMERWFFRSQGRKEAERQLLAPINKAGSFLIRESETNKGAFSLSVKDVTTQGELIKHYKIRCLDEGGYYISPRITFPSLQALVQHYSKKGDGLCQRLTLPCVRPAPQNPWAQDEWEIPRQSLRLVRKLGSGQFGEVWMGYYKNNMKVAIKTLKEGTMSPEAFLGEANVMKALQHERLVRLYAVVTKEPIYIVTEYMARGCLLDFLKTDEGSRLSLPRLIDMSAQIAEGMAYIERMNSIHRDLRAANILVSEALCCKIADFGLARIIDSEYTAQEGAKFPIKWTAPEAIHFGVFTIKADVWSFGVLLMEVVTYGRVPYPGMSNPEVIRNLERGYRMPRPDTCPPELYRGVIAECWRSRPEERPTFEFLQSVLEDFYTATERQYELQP

SMILES: COCC(=O)NC/C=C/c1ccc2ncnc(Nc3ccc(Oc4ccc(C)nc4)c(C)c3)c2c1 [CP-724714]
- % of control [1]: 62%

SMILES: O[C@H]1CC[C@H](Nc2ncc3nc(Nc4c(F)cc(F)cc4F)n([C@H]4CCOC4)c3n2)CC1
- % of control [2]: 17%
- % of control [3]: 81%

SMILES: CC(=O)c1cc(-c2ccccc2OCC2CC2)c2ncccn12
- % of control [4]: 105%
